# Data as given in PMC8800111 (The Journal of Biological Chemistry, 2021).
# Key:
# Format in all cases: cell-based
# [1] = target: proteins of U3A human fibrosarcoma cells (4462 proteins detected) (Homo sapiens, UniProt Q14161); conditions: protein GIT2; soluble abundance after heat, U3A cells
# [2] = target: proteins of U3A human fibrosarcoma cells (4462 proteins detected) (Homo sapiens, UniProt P32320); conditions: protein CDA, U3A cells
# [3] = target: proteins of U3A human fibrosarcoma cells (4462 proteins detected) (Homo sapiens, UniProt O60749); conditions: protein SNX2; U3A cells
# [4] = target: proteins of U3A human fibrosarcoma cells (4462 proteins detected) (Homo sapiens, UniProt Q8WUA7); conditions: protein TBC1D22A; soluble abundance after heat, U3A cells
# [5] = target: proteins of U3A human fibrosarcoma cells (4462 proteins detected) (Homo sapiens, UniProt P00374); conditions: 10 μM, 2 h
# [6] = target: proteins of U3A human fibrosarcoma cells (4462 proteins detected) (Homo sapiens, UniProt Q9BX40); conditions: protein LSM14B; U3A, 10 μM, 2 h
# [7] = target: proteins of U3A human fibrosarcoma cells (4462 proteins detected) (Homo sapiens, UniProt P57105); conditions: protein SYNJ2BP-COX16; SYNJ2BP, U3A cells
# [8] = target: proteins of U3A human fibrosarcoma cells (4462 proteins detected) (Homo sapiens, UniProt P26440); conditions: protein IVD, U3A cells
# [9] = target: proteins of U3A human fibrosarcoma cells (4462 proteins detected) (Homo sapiens, UniProt Q9NVT9); conditions: protein ARMC1; U3A cells
# [10] = target: proteins of U3A human fibrosarcoma cells (4462 proteins detected) (Homo sapiens, UniProt P07948); conditions: protein LYN; U3A cells
# [11] = target: proteins of U3A human fibrosarcoma cells (4462 proteins detected) (Homo sapiens, UniProt P52943); conditions: protein CRIP2, U3A cells
# [12] = target: proteins of U3A human fibrosarcoma cells (4462 proteins detected) (Homo sapiens, UniProt Q13162); conditions: protein PRDX4; U3A cells
# [13] = target: proteins of U3A human fibrosarcoma cells (4462 proteins detected) (Homo sapiens, UniProt O94880); conditions: protein PHF14; U3A, 10 μM, 2 h
# [14] = target: proteins of U3A human fibrosarcoma cells (4462 proteins detected) (Homo sapiens, UniProt Q6QNY1); conditions: protein BLOC1S2, U3A cells
# [15] = target: proteins of U3A human fibrosarcoma cells (4462 proteins detected) (Homo sapiens, UniProt O14646); conditions: protein CHD1, U3A cells
# [16] = target: proteins of U3A human fibrosarcoma cells (4462 proteins detected) (Homo sapiens, UniProt Q9Y3B4); conditions: protein SF3B6; soluble abundance after heat, U3A cells
# [17] = target: proteins of U3A human fibrosarcoma cells (4462 proteins detected) (Homo sapiens, UniProt O00629); conditions: protein KPNA4; U3A cells
# [18] = target: proteins of U3A human fibrosarcoma cells (4462 proteins detected) (Homo sapiens, UniProt Q9BQP7); conditions: protein MGME1; soluble abundance after heat, U3A cells
# [19] = target: proteins of U3A human fibrosarcoma cells (4462 proteins detected) (Homo sapiens, UniProt Q9NY33); conditions: protein DPP3, U3A cells
# [20] = target: proteins of U3A human fibrosarcoma cells (4462 proteins detected) (Homo sapiens, UniProt Q9UQ80); conditions: protein PA2G4, U3A cells
# [21] = target: proteins of U3A human fibrosarcoma cells (4462 proteins detected) (Homo sapiens, UniProt Q9H1B7); conditions: protein IRF2BPL; soluble abundance after heat, U3A cells
# [22] = target: proteins of U3A human fibrosarcoma cells (4462 proteins detected) (Homo sapiens, UniProt O95801); conditions: protein TTC4; soluble abundance after heat, U3A cells
# [23] = target: proteins of U3A human fibrosarcoma cells (4462 proteins detected) (Homo sapiens, UniProt P36542); conditions: protein ATP5C1; U3A cells
# [24] = target: proteins of U3A human fibrosarcoma cells (4462 proteins detected) (Homo sapiens, UniProt O94925); conditions: protein GLS; U3A, 10 μM, 2 h
# [25] = target: proteins of U3A human fibrosarcoma cells (4462 proteins detected) (Homo sapiens, UniProt Q8IYB5); conditions: protein SMAP1; soluble abundance after heat, U3A cells
# [26] = target: proteins of U3A human fibrosarcoma cells (4462 proteins detected) (Homo sapiens, UniProt O75449); conditions: protein KATNA1; U3A cells
# [27] = target: proteins of U3A human fibrosarcoma cells (4462 proteins detected) (Homo sapiens, UniProt Q9BY89); conditions: protein KIAA1671, U3A cells
# [28] = target: proteins of U3A human fibrosarcoma cells (4462 proteins detected) (Homo sapiens, UniProt P51532); conditions: protein SMARCA4; U3A cells
# [29] = target: proteins of U3A human fibrosarcoma cells (4462 proteins detected) (Homo sapiens, UniProt P27816); conditions: protein MAP4, U3A cells
# Chain of proteins of U3A human fibrosarcoma cells (4462 proteins detected) (Homo sapiens, UniProt P00374) (P00374 whole entry): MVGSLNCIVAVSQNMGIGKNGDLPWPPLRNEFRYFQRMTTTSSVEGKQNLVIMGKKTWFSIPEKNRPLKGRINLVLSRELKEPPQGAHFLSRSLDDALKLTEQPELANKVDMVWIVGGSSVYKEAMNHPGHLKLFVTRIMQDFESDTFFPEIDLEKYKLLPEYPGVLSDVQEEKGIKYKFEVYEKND
# Chain of proteins of U3A human fibrosarcoma cells (4462 proteins detected) (Homo sapiens, UniProt Q9NVT9) (Q9NVT9 whole entry): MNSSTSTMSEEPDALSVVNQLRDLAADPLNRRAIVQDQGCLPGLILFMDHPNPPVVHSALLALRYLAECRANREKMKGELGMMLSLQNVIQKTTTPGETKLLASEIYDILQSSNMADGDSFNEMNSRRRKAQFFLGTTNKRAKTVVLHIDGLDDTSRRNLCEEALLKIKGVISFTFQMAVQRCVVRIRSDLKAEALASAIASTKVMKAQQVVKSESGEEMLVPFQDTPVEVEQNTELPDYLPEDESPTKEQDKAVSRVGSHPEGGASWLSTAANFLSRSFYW
# Chain of proteins of U3A human fibrosarcoma cells (4462 proteins detected) (Homo sapiens, UniProt P26440) (P26440 33-426): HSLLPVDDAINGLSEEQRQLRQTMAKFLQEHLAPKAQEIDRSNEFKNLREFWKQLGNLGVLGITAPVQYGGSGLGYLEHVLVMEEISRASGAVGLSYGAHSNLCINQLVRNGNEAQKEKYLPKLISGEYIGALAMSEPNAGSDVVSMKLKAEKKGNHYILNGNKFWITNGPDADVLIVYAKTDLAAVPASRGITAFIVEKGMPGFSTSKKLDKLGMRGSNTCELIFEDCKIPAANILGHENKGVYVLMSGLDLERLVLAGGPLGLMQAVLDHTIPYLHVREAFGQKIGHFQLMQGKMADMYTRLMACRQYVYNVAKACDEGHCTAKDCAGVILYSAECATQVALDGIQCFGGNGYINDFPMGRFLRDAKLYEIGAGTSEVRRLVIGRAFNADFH
# Chain of proteins of U3A human fibrosarcoma cells (4462 proteins detected) (Homo sapiens, UniProt Q9BQP7) (Q9BQP7 whole entry): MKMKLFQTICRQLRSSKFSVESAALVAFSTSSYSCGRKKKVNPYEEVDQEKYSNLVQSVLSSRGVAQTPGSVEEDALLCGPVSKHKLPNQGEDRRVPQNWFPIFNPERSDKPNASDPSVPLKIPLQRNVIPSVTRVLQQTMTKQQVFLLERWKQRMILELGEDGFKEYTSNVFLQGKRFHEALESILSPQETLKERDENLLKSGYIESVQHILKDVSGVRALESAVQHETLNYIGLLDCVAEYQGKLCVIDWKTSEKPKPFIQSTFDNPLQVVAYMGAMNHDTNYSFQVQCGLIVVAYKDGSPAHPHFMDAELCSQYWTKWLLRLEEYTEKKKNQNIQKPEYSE
# Chain of proteins of U3A human fibrosarcoma cells (4462 proteins detected) (Homo sapiens, UniProt P51532) (P51532 whole entry): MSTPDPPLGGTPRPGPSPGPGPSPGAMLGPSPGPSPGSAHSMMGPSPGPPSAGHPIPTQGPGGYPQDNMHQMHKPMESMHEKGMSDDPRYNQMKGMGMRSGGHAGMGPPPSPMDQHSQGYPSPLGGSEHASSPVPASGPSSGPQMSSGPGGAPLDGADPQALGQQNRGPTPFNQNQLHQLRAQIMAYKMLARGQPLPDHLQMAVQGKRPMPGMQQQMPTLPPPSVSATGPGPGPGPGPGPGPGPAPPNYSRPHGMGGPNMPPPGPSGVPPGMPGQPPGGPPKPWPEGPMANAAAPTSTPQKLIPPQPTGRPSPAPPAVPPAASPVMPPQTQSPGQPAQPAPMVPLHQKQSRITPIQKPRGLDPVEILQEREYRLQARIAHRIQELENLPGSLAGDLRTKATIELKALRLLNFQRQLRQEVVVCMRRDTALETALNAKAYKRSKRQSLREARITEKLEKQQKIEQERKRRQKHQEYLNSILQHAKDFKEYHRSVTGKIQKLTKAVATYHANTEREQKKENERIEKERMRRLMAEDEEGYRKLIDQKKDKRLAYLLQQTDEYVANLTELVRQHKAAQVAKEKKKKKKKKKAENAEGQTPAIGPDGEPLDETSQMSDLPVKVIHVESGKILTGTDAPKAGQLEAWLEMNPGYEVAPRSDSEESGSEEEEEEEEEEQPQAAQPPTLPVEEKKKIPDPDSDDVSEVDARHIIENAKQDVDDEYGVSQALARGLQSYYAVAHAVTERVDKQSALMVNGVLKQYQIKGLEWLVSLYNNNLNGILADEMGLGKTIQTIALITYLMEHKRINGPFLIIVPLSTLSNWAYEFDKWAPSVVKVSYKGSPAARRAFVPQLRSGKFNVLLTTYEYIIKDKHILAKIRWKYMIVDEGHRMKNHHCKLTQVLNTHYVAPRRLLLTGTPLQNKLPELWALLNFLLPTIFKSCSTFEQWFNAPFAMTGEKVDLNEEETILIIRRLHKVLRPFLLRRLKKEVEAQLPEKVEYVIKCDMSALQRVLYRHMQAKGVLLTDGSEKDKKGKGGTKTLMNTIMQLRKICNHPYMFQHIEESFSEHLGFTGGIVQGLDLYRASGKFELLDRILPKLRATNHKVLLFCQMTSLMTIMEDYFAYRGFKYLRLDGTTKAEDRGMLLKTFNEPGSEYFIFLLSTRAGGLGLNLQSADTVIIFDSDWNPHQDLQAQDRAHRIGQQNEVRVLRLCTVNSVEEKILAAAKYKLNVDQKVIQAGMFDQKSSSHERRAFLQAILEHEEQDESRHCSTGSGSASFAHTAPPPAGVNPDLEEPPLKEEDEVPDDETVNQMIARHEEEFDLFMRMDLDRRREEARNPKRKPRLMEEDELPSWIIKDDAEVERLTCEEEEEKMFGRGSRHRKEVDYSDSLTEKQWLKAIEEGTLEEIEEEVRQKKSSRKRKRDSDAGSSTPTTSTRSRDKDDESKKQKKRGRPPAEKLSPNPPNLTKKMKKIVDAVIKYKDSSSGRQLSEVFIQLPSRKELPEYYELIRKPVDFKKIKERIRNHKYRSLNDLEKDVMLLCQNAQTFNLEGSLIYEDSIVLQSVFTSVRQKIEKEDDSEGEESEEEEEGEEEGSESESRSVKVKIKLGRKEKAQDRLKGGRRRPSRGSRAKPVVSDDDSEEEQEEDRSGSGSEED
# Chain of proteins of U3A human fibrosarcoma cells (4462 proteins detected) (Homo sapiens, UniProt Q6QNY1) (Q6QNY1 whole entry): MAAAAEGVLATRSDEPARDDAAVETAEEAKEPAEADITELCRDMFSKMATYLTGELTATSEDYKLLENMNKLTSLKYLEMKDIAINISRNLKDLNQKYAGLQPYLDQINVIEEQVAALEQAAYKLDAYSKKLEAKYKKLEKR
# Chain of proteins of U3A human fibrosarcoma cells (4462 proteins detected) (Homo sapiens, UniProt O00629) (O00629 whole entry): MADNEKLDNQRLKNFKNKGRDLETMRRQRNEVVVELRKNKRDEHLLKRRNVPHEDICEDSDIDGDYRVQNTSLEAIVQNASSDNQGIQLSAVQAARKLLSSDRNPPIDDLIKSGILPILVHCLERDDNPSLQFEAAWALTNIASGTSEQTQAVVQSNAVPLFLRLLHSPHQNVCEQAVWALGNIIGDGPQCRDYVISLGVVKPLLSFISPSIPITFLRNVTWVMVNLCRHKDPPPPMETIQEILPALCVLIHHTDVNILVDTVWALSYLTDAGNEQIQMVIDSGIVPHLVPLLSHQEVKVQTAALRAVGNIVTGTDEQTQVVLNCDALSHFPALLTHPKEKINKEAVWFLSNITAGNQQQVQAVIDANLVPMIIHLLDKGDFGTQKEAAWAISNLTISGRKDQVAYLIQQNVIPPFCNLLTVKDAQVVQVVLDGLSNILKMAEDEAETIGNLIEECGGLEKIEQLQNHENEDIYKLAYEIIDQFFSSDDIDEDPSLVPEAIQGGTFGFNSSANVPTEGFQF
# Chain of proteins of U3A human fibrosarcoma cells (4462 proteins detected) (Homo sapiens, UniProt Q8WUA7) (Q8WUA7 whole entry): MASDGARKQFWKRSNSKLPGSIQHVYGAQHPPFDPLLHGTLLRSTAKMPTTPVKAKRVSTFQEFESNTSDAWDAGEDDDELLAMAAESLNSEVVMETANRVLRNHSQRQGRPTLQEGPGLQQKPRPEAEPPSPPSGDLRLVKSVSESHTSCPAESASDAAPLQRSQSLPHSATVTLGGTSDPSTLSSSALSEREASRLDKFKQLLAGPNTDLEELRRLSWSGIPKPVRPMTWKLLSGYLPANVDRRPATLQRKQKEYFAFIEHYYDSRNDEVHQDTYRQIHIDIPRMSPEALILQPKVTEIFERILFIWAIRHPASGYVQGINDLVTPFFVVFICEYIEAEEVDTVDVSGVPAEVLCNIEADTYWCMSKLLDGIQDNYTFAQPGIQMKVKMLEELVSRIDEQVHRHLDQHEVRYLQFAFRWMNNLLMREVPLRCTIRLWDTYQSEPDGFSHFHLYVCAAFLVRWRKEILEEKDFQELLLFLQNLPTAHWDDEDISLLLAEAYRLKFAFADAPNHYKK
# Chain of proteins of U3A human fibrosarcoma cells (4462 proteins detected) (Homo sapiens, UniProt O60749) (O60749 whole entry): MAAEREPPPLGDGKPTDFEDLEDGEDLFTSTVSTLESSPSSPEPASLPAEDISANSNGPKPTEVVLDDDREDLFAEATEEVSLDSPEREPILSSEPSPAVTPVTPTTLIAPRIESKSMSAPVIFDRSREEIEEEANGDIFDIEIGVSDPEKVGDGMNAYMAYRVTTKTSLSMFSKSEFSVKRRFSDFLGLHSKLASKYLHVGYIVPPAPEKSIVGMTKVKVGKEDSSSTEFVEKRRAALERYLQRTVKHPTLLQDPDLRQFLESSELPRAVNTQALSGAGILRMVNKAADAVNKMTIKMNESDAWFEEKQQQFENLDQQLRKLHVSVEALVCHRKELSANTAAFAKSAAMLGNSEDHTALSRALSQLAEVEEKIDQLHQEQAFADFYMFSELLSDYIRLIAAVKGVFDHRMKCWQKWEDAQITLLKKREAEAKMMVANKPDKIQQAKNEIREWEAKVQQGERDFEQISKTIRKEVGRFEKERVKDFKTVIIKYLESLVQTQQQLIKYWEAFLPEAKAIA
# Chain of proteins of U3A human fibrosarcoma cells (4462 proteins detected) (Homo sapiens, UniProt P57105) (P57105 whole entry): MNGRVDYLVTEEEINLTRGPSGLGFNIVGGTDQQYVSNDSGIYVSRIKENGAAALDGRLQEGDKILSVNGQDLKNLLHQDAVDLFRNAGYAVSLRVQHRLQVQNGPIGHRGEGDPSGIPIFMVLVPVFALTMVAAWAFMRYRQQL
# Chain of proteins of U3A human fibrosarcoma cells (4462 proteins detected) (Homo sapiens, UniProt Q9Y3B4) (Q9Y3B4 whole entry): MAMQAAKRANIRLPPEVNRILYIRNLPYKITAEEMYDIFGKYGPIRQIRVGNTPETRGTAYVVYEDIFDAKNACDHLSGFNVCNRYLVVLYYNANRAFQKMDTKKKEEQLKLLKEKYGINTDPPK
structure (smiles),measurement,setting,value
CCc1nc(N)nc(N)c1-c1ccc(Cl)cc1 [pyrimethamine],Log2 (PYR/DMSO),[1],0.14
same,Log2 (PYR/DMSO),[2],-0.04
same,Log2 (PYR/DMSO),[3],0.17
same,Log2 (PYR/DMSO),[4],0.15
same,increased abundance of DHFR in the soluble fraction,"[5]; U3A cells, vs vehicle",1.7 fold
same,"Log2 (PYR/DMSO), DHFR","[5]; protein DHFR, U3A",0.80
same,"Log2 (PYR/DMSO), LSM14B",[6],-0.17
same,Log2 (PYR/DMSO),[7],-0.03
same,Log2 (PYR/DMSO),[8],-0.05
same,Log2 (PYR/DMSO),[9],0.16
same,Log2 (PYR/DMSO),[10],0.16
same,Log2 (PYR/DMSO),[11],-0.04
same,Log2 (PYR/DMSO),[12],0.16
same,"Log2 (PYR/DMSO), PHF14",[13],-0.15
same,Log2 (PYR/DMSO),[14],-0.04
same,Log2 (PYR/DMSO),[15],-0.04
same,Log2 (PYR/DMSO),[16],0.14
same,Log2 (PYR/DMSO),[17],0.22
same,Log2 (PYR/DMSO),[18],0.14
same,Log2 (PYR/DMSO),[19],-0.04
same,Log2 (PYR/DMSO),[20],-0.03
same,Log2 (PYR/DMSO),[21],0.14
same,Log2 (PYR/DMSO),[22],0.13
same,Log2 (PYR/DMSO),[23],0.21
same,"Log2 (PYR/DMSO), GLS",[24],0.24
same,Log2 (PYR/DMSO),[25],0.15
same,Log2 (PYR/DMSO),[26],0.18
same,Log2 (PYR/DMSO),[27],-0.03
same,Log2 (PYR/DMSO),[28],0.16
same,Log2 (PYR/DMSO),[29],-0.05
